# Source: patent US8067589B2, “Heterocyclic compounds useful in treating diseases and conditions” (Pfizer Inc, priority 2007, dated 2011)
# Target: human recombinant H-PGDS (Homo sapiens, UniProt O60760)
# Assay: Fluoresecence Intensity h-PGDSTBA Enzyme Assay
# Conditions: IC50, 5.0 μM PGH2, 2.5 mM L-Glutathione, 10 min preincubation, 4-parameter fit, highest inhibitor concentration typically 1 μM
# human recombinant H-PGDS, sequence (O60760 whole entry): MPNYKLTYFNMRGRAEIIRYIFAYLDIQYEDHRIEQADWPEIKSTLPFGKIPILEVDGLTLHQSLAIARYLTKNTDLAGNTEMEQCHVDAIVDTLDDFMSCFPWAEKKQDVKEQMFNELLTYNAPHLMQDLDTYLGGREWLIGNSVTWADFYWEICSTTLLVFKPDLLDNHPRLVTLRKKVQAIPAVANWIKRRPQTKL
row,IC50 [nM],SMILES
1,13,"CN1CCc2nc(N3CC[C@@H](NC(=O)c4cnc(-c5cccc(F)c5)nc4)C3)ncc2C1 [Example 78a, 2-(3-Fluorophenyl)-N-[(3R)-1-(6-methyl-5,6,7,8-tetrahydropyrido[4,3-d]pyrimidin-2-yl)pyrrolidin-3-yl]pyrimidine-5-carboxamide]"
2,0.373,"CNC(=O)N1CCC(NC(=O)c2cnc(-c3cccc(F)c3)nc2)CC1 [Example 25, 2-(3-Fluorophenyl)-N-{1-[(methylamino)carbonyl]piperidin-4-yl}pyrimidine-5-carboxamide]"
3,0.808,"O=C(NC1CCN(C2Cc3ccccc3C2)C1=O)c1cnc(-c2cccc(F)c2)nc1 (centres unmarked) [Example 90, N-[1-(2,3-Dihydro-1H-inden-2-yl)-2-oxopyrrolidin-3-yl]-2-(3-fluorophenyl)pyrimidine-5-carboxamide]"
4,7.68,"N#Cc1cc(Cl)ccc1OCC(c1ccccc1)N1CCC(NC(=O)c2cnc(-c3cccc(F)c3)nc2)CC1 (centres unmarked) [Example 31, N-{1-[2-(4-Cchloro-2-cyanophenoxy)-1-phenylethyl]piperidin-4-yl}-2-(3-fluorophenyl)pyrimidine-5-carboxamide]"
5,0.147,"O=C(NC1CCN(c2ncc3c(n2)CCC3)C1)c1cnc(-c2cccc(F)c2)nc1 (centres unmarked) [Example 89, N-[1-(6,7-Dihydro-5H-cyclopenta[d]pyrimidin-2-yl)pyrrolidin-3-yl]-2-(3-fluorophenyl)pyrimidine-5-carboxamide]"
